One test has as its target α4β7 integrin (Homo sapiens (Human), UniProt P13612+P26010). Kind of test: Integrin Adhesion Assay: Protocol 1 (MAdCAM-coated plate, RPMI-8866 cells, CellTiter GLO readout). Particulars: integrin adhesion assay; determined by at least one of the assays described (protocol not specified). In kind it is cell-based. Put shortly:
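RPMI-8866 cells (2×10^6 per mL) added with compounds (1% DMSO) to MAdCAM-coated wells blocked in HEPES/NaCl buffer with 1 mM MnCl2, 0.1 mM CaCl2, 1% BSA; 1 h at 37° C, 5% CO2. After four washes, bound cells read by CellTiter GLO luminescence; % inhibition vs DMSO and control wells, 4-parameter fit.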
(In general: ATP-based viability assays read luminescence as a measure of living cells.)

For a further test, the target named is α4β1 integrin (Homo sapiens (Human), UniProt P05556+P13612). Nature of the test: Integrin Adhesion Assay: Protocol 2 (VCAM-coated plate, Jurkat cells, CellTiter GLO readout). In kind it is cell-based. Particulars: determined by at least one of the assays described (protocol not specified). The protocol: α4β7 and α4β1 inhibition was evaluated in vitro using at least one of the following procedures:
Integrin Adhesion Assay: Protocol 2
VCAM (R&D Systems, 0.1 ug) was diluted in 50 μL PBS, added to each well of an opaque ELISA plate (Thermo), and incubated overnight at 4° C. Coated plates were washed once with PBS and then blocked with 200 μL of assay buffer (10 mM HEPES, 150 mM NaCl, 1 mM MnCl2, 0.1 mM CaCl2), 1% BSA) for 1 hour at 37° C. and 5% CO2. After incubation, buffer was aspirated from the plates and 50 μL of fresh assay buffer was added. Compounds were added by compounds dispenser (Tecan) and DMSO concentration was normalized to 1% across each plate. 50 μL of Jurkat cells (2×10^6 per mL) were added to each well and the plates were incubated for 1 hour at 37° C. and 5% CO2. After incubation, plates were allowed to cool to RT for 10 minutes before being washed four times in assay buffer by an automated plate washer (BioTek). After washing, 100 μL of a 1:1 mixture of assay buffer and CellTiter GLO 2.0 reagent (Promega) were added to each well. Plates were mixed for 2 minutes at 1000 rpm and then allowed to incubate an additional 10 minutes before reading out luminescence on a Tecan Spark plate reader. Raw data was converted to percent inhibition based on DMSO only and control compound wells, and curves were analyzed by 4-parameter fit within Dotmatics software.

Structures are written as SMILES.

Sequence of α4β7 integrin (P13612 34-1032): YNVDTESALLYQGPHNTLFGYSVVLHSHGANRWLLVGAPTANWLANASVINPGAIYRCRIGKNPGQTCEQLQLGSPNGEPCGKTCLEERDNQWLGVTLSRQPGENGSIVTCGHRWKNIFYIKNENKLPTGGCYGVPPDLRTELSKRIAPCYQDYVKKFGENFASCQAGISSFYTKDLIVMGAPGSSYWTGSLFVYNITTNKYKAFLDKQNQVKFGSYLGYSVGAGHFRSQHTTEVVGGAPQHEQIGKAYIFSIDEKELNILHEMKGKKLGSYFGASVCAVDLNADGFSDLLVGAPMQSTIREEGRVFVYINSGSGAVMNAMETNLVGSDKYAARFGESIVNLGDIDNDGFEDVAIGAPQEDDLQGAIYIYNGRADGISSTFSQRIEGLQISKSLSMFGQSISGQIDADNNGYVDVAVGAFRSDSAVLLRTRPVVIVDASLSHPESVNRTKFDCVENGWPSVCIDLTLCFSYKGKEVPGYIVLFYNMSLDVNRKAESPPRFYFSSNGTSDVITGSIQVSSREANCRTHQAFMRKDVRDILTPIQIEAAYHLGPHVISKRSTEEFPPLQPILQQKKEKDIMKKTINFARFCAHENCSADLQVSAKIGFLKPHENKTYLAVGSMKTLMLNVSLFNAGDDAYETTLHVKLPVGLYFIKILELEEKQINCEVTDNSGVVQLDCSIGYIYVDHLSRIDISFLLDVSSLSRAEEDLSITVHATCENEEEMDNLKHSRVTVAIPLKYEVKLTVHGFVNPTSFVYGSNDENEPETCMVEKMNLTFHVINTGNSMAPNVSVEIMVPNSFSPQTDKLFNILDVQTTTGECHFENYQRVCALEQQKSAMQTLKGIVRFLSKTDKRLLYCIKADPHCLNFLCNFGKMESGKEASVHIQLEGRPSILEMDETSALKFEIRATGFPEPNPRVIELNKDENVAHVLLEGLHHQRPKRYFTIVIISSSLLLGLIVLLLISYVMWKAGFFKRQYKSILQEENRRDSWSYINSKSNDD
Sequence of α4β7 integrin (P26010 20-798): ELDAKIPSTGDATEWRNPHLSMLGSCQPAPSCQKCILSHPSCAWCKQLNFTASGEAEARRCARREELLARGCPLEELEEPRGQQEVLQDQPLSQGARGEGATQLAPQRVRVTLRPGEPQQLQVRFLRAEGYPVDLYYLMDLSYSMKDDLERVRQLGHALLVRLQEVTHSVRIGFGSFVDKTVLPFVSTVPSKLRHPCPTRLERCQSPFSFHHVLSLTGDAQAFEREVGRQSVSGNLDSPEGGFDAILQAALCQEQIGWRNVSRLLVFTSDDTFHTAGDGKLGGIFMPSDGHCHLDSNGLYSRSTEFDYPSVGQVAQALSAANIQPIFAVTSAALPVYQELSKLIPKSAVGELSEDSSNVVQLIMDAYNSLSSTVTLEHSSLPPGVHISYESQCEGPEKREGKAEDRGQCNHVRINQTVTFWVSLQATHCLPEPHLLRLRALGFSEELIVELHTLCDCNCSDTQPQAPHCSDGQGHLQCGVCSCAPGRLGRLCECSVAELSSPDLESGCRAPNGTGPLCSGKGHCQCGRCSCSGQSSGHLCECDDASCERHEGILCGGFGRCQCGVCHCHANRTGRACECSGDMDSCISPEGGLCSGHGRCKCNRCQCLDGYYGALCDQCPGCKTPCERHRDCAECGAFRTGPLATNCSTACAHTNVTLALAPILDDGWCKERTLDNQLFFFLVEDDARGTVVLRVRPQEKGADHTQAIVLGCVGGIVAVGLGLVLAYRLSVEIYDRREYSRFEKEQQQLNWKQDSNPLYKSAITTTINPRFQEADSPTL
Sequence of α4β1 integrin (P13612 34-1032): as the sequence (P13612 34-1032) above
Sequence of α4β1 integrin (P05556 21-798): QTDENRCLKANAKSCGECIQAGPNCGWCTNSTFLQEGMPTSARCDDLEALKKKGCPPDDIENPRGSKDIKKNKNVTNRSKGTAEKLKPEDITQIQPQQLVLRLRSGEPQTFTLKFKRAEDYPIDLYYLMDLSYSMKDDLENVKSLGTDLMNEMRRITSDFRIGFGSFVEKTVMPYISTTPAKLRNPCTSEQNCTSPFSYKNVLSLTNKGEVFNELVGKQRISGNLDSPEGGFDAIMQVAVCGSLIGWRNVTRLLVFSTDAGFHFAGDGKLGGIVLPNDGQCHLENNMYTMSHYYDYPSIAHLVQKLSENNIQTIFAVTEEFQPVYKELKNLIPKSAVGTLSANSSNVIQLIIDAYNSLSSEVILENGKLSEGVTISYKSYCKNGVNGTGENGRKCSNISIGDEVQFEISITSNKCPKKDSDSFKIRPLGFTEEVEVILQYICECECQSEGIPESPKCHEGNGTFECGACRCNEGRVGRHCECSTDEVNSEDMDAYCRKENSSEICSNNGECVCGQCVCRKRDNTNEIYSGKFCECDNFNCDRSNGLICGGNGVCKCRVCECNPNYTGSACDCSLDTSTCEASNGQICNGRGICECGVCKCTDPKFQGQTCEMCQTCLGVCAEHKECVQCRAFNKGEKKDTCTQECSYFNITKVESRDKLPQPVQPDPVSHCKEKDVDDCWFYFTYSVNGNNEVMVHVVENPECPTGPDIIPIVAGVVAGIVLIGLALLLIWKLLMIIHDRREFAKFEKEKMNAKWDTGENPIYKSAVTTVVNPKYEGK

The term IC50 denotes the concentration at which inhibition is half-maximal. Read a low IC50 as greater potency in that assay. On to `Cn1ccc(C(F)(F)F)c(-c2nccc3c(C[C@H](NC(=O)c4c(F)cc(N5CCOC[C@H]5C(F)(F)F)cc4F)C(=O)O)cccc23)c1=O` [Compound 218], for which the IC50 against α4β7 integrin was 10 to 100 nM; at α4β1 integrin it was greater than 1000 nM.
With `Cn1ccc(=O)n(-c2cccc3c(C[C@H](NC(=O)C4(C)CCOCC4)C(=O)O)cccc23)c1=O` [Compound 10], the IC50 lay within 10 to 100 nM on α4β7 integrin and 100 to 1000 nM against α4β1 integrin.
In the same order, the values of `COCCN1CCC(C)(C(=O)N[C@@H](Cc2cccc3c(-n4c(=O)ccn(C)c4=O)cccc23)C(=O)O)CC1` [Compound 159] are 100 to 1000 nM and greater than 1000 nM.
For `Cn1ccc(=O)n(-c2cccc3c(C[C@H](NC(=O)[C@@H]4C[C@H]5CC[C@@H](C4)N5CC(F)(F)F)C(=O)O)cccc23)c1=O` [Compound 166] the same measures were greater than 1000 nM and greater than 1000 nM.
In the same order, the values of `Cn1ccc(=O)n(-c2cccc3c(C[C@H](NC(=O)c4c(F)cc5ncccc5c4F)C(=O)O)cccc23)c1=O` [Compound 133] are less than 10 nM and greater than 1000 nM.
With `Cn1ccc(=O)n(-c2cccc3c(C[C@H](NC(=O)C4(C)CCCCC4)C(=O)O)cccc23)c1=O` [Compound 161], the IC50 against α4β7 integrin was 100 to 1000 nM; against α4β1 integrin, greater than 1000 nM.
For `Cn1ccc(C(F)(F)F)c(-c2nccc3c(C[C@H](NC(=O)c4c(Cl)cc(N5CCOC[C@@H]5C(F)(F)F)cc4CN4CCC(F)(F)CC4)C(=O)O)cccc23)c1=O` [Compound 224] the same measures were 10 to 100 nM and greater than 1000 nM.
As to `Cn1ccc(=O)n(-c2cccc3c(C[C@H](NC(=O)c4c(F)cc(C(F)(F)F)cc4F)C(=O)O)cccc23)c1=O` [Compound 26], the IC50 is 10 to 100 nM against α4β7 integrin and greater than 1000 nM against α4β1 integrin.
For the compound `Cn1c(C(F)(F)F)ccc(-c2cccc3c(C[C@H](NC(=O)c4c(F)cc(N5CCOC[C@@H]5C(F)(F)F)cc4F)C(=O)O)cccc23)c1=O` [Compound 67], the values for the IC50 on α4β7 integrin and against α4β1 integrin were less than 10 nM and greater than 1000 nM, respectively.
As to `O=C(N[C@@H](Cc1cccc2c(-c3cccc4ccncc34)nccc12)C(=O)O)c1c(F)cc(N2CCOC[C@@H]2C(F)(F)F)cc1CN1CCCC1` [Compound 255], the values for the IC50 against α4β7 integrin and against α4β1 integrin were less than 10 nM and 100 to 1000 nM, respectively.
For `Cn1ccc(=O)n(-c2cccc3c(C[C@H](NC(=O)C45CCC(C)(CC4)CC5)C(=O)O)cccc23)c1=O` [Compound 52] the same measures were 100 to 1000 nM and greater than 1000 nM.
Regarding `O=C(N[C@@H](Cc1cccc2c(-c3nccc4ccncc34)cccc12)C(=O)O)c1c(F)cc(N2CCOC[C@@H]2C(F)(F)F)cc1F` [Compound 23], the IC50 on α4β7 integrin is less than 10 nM; against α4β1 integrin, greater than 1000 nM.
Take `Cn1ccc(=O)n(-c2cccc3c(C[C@H](NC(=O)C4(C)CCN(C5COC5)CC4)C(=O)O)cccc23)c1=O` [Compound 60]: the results for the IC50 against α4β7 integrin and at α4β1 integrin were 10 to 100 nM and greater than 1000 nM, respectively.
Take `CN1CCN(Cc2cc(N3CCOC[C@@H]3C(F)(F)F)cc(F)c2C(=O)N[C@@H](Cc2cccc3c(-c4c(C(F)(F)F)ccn(C)c4=O)nccc23)C(=O)O)CC1` [Compound 248]: the IC50 at α4β7 integrin is less than 10 nM; against α4β1 integrin, greater than 1000 nM.
As for `Cn1ccc(=O)n(-c2cccc3c(C[C@H](NC(=O)c4c(F)cccc4CN4CCOCC4)C(=O)O)cccc23)c1=O` [Compound 167], the figures for the half-maximal inhibitory concentration (IC50) at α4β7 integrin and at α4β1 integrin were less than 10 nM and 100 to 1000 nM, respectively.
For the compound `O=C(N[C@@H](Cc1cccc2c(-c3nccc4ccncc34)cccc12)C(=O)O)c1c(F)cc(CN2CCC2)cc1F` [Compound 37], the IC50 against α4β7 integrin and on α4β1 integrin was greater than 1000 nM in each case.
Regarding `Cn1ccc(=O)n([C@H]2CCc3c(C[C@H](NC(=O)c4c(F)cccc4F)C(=O)O)cccc32)c1=O` (single isomer, unassigned) [Compound 282], the IC50 on α4β7 integrin is 100 to 1000 nM; at α4β1 integrin it was greater than 1000 nM.
In the case of `COC(=O)[C@H](Cc1cccc2c(-n3c(=O)ccn(C)c3=O)cccc12)NC(=O)c1c(F)cccc1CN1CCOCC1` [Compound 168], the IC50 was 100 to 1000 nM against α4β7 integrin and greater than 1000 nM against α4β1 integrin.
Regarding `CCN1CCC(C)(C(=O)N[C@@H](Cc2cccc3c(-n4c(=O)ccn(C)c4=O)cccc23)C(=O)O)C(F)(F)C1` (some centres unmarked) [Compound 56], the IC50 against α4β7 integrin is 100 to 1000 nM; on α4β1 integrin, greater than 1000 nM.
For `Cn1ccc(=O)n(-c2cccc3c(C[C@H](NC(=O)c4ccc(C(=O)N5CCc6ccccc6C5)nc4)C(=O)O)cccc23)c1=O` [Compound 25] the same measures were greater than 1000 nM and greater than 1000 nM.
Turning to `Cn1ccc(=O)n(-c2cccc3c(C[C@H](NC(=O)c4c(F)ccc(C(F)(F)F)c4F)C(=O)O)cccc23)c1=O` [Compound 29], the IC50 is 10 to 100 nM against α4β7 integrin and greater than 1000 nM against α4β1 integrin.
As for `Cn1ccc(=O)n(-c2cccc3c(C[C@H](NC(=O)C4(F)CCN(CC(F)(F)F)CC4)C(=O)O)cccc23)c1=O` [Compound 164], the IC50 against α4β7 integrin and against α4β1 integrin was greater than 1000 nM each time.
Turning to `CC(=O)N1CCC(C)(C(=O)N[C@@H](Cc2cccc3c(-n4c(=O)ccn(C)c4=O)cccc23)C(=O)O)CC1` [Compound 50], the IC50 on α4β7 integrin is 100 to 1000 nM; against α4β1 integrin it was greater than 1000 nM.
In the case of `Cc1ccccc1-c1cccc(C(F)(F)C(=O)N[C@@H](Cc2cccc3c(-n4c(=O)ccn(C)c4=O)cccc23)C(=O)O)c1` [Compound 179], the IC50 against α4β7 integrin and against α4β1 integrin was greater than 1000 nM in each case.
In the case of `Cn1ccc(=O)n(-c2cccc3c(C[C@H](NC(=O)c4c(F)cc(NCC(F)(F)F)cc4CN4CCOCC4)C(=O)O)cccc23)c1=O` [Compound 19], the IC50 is less than 10 nM on α4β7 integrin and 100 to 1000 nM against α4β1 integrin.
In the case of `Cn1ccc(=O)n(-c2cccc3c(C[C@H](NC(=O)C4(Cc5ccc(F)cc5)CCC(F)(F)CC4)C(=O)O)cccc23)c1=O` [Compound 64], the IC50 at α4β7 integrin and at α4β1 integrin was greater than 1000 nM each time.
As to `Cn1ccc(C(F)(F)F)c(-c2nccc3c(C[C@H](NC(=O)c4c(F)cc(NCC(F)(F)F)cc4CN4CCCC4)C(=O)O)cccc23)c1=O` [Compound 254], the results for the IC50 at α4β7 integrin and at α4β1 integrin were less than 10 nM and greater than 1000 nM, respectively.
Take `Cn1ccc(=O)n(-c2cccc3c(C[C@H](NC(=O)c4c(F)cc(N(CC(F)(F)F)CC(F)(F)F)cc4F)C(=O)O)cccc23)c1=O` [Compound 130]: the figures for the IC50 against α4β7 integrin and against α4β1 integrin were less than 10 nM and greater than 1000 nM, respectively.
As to `Cn1ccc(=O)n(-c2cccc3c(C[C@H](NC(=O)c4c(F)cc5c(c4F)CS(=O)(=O)N5)C(=O)O)cccc23)c1=O` [Compound 43], the IC50 is less than 10 nM against α4β7 integrin and 100 to 1000 nM on α4β1 integrin.
For `O=C(N[C@@H](Cc1cccc2c(-c3cccc4ccncc34)cccc12)C(=O)O)c1c(F)cc(N2CCOC[C@@H]2C(F)(F)F)cc1F` [Compound 47] the same measures were 10 to 100 nM and greater than 1000 nM.
For `Cn1ccc(=O)n(-c2cccc3c(C[C@H](NC(=O)[C@@H]4CCCN4c4ccccc4C#N)C(=O)O)cccc23)c1=O` [Compound 79], the IC50 at α4β7 integrin is 10 to 100 nM; against α4β1 integrin, greater than 1000 nM.
Turning to `Cn1ccc(C(F)(F)F)c(-c2nccc3c(C[C@H](NC(=O)c4c(F)cc5nc(CC(F)(F)F)[nH]c5c4F)C(=O)O)cccc23)c1=O` [Compound 213], the values for the IC50 against α4β7 integrin and against α4β1 integrin were 10 to 100 nM and greater than 1000 nM, respectively.
`Cc1cc(N2CCOC[C@@H]2C(F)(F)F)cc(F)c1C(=O)N[C@@H](Cc1cccc2c(-c3c(C(F)(F)F)ccn(C)c3=O)nccc12)C(=O)O` [Compound 215]: the IC50 against α4β7 integrin is less than 10 nM; at α4β1 integrin, greater than 1000 nM.
Consider `CCCS(=O)(=O)Nc1ccc(F)c(C(=O)N[C@@H](Cc2cccc3c(-n4c(=O)ccn(C)c4=O)cccc23)C(=O)O)c1F` [Compound 132], for which the IC50 on α4β7 integrin is less than 10 nM; at α4β1 integrin it was 100 to 1000 nM.
As for `Cn1ccc(=O)n(-c2cccc3c(C[C@H](NC(=O)C4(C)CCN(CC(F)F)CC4)C(=O)O)cccc23)c1=O` [Compound 58], the IC50 on α4β7 integrin is 10 to 100 nM; at α4β1 integrin it was greater than 1000 nM.
With `Cn1ccc(=O)n(-c2cccc3c(C[C@H](NCc4c(F)cccc4F)C(=O)O)cccc23)c1=O` [Compound 68], the IC50 against α4β7 integrin and against α4β1 integrin was greater than 1000 nM each time.
In the case of `Cn1ccc(=O)n(-c2cccc3c(C[C@H](NC(=O)c4c(F)cccc4CN4CCC4)C(=O)O)cccc23)c1=O` [Compound 7], the IC50 against α4β7 integrin is 10 to 100 nM; on α4β1 integrin it was greater than 1000 nM.
Turning to `Cn1ccc(C(F)(F)F)c(-c2nccc3c(C[C@H](NC(=O)c4cc(F)cc(CSc5ccccc5)c4)C(=O)O)cccc23)c1=O` [Compound 229], the IC50 at α4β7 integrin and on α4β1 integrin was greater than 1000 nM throughout.
For the compound `CN1CCN(c2cc(F)c(C(=O)N[C@@H](Cc3cccc4c(-n5c(=O)ccn(C)c5=O)cccc34)C(=O)O)c(F)c2)[C@@H](C(F)(F)F)C1` [Compound 21], the values for the IC50 on α4β7 integrin and at α4β1 integrin were 10 to 100 nM and greater than 1000 nM, respectively.
Take `CN(C)CCn1ccc(=O)n(-c2cccc3c(C[C@H](NC(=O)c4c(F)cccc4F)C(=O)O)cccc23)c1=O` [Compound 119]: the IC50 on α4β7 integrin was 10 to 100 nM; against α4β1 integrin it was greater than 1000 nM.

These data come from patent US20250313535A1, “ALPHA 4 BETA 7 INTEGRIN MODULATORS AND USES THEREOF” (DICE MOLECULES SV, INC., priority 2022, published 2025).
